In US12371507B2, “CDCP1 antibodies and antibody drug conjugates” (Beth Israel Deaconess Medical Center, priority 2018, dated 2025):
Non-standard residues stand in square brackets, D forms with d. Residues, ends and D or L forms follow the SMILES beside them. *: point of attachment. Dolaproine = CO[C@@H]([C@@H]1CCCN1)[C@@H](C)C(=O)O; Dil = CC[C@H](C)[C@H](NC)[C@@H](CC(=O)O)OC; Doe = c1ccc(C[C@H](N*)c2nccs2)cc1; Aib = CC(C)(N)C(=O)O

Legend:
[1] = test system: head and neck cancer model PDX-HNX-24715; assay: PDX tumor growth versus standard of care; type: in vivo, mouse; settings: 5 mg/kg
Procedure: (§1) The effects of ADCs were evaluated on the in vivo growth of human tumor patient-derived xenografts (PDX) implanted into immunodeficient NOD/SCID mice. To establish initial PDX cell lines, primary human tumor resection samples were procured from clinical sites following Institutional Review Board for the Protection of Human Subjects approval and in accordance with HIPAA regulations. Tumor fragments were implanted subcutaneously in mice and animals were monitored for health status daily and for tumor growth by visual inspection twice per week. Once the tumors were palpable, measurements of tumor volume began in order to track tumor growth and estimate cell doubling time. Tumor volume was estimated using the equation V=(A*B^2)/2 where A is the long axis and B is the short axis. When tumors reached a volume of 500 mm^3 to 1,500 mm^3, they were harvested for study and for re-transplant in naïve mice as a PDX line. Tumors were mechanically dissociated into fragments for cryopreservation or additional passage in mice.
(§2) For efficacy studies, PDX tumors were aseptically harvested from passaging mice and minced into fragments approximately 2 mm in diameter. The PDX tumor fragments were transplanted into the right flank of naïve 7-10-week old NOD-SCID mice.
(§3) Tumor growth was initially followed by palpability with measurements beginning once tumor volumes reached about 30 mm^3. Studies were randomized based on tumor size once a cohort of tumor-bearing mice reached an average of 200 mm^3. Animals were then dosed by intravenous injection of test ADCs once every four days (day 1, 5, 9, and 13) for four total doses (q4d×4). For each tumor measurement taken at regular intervals the tumor volume was calculated and an average tumor size +/− the standard error of the mean (SEM) was derived per cohort of surviving animals to determine tumor growth rates. In some studies, a “waterfall plot” was derived by calculating the maximum observed percent difference in tumor volume from the starting volume post the final dose of ADC. […]

[2] = test system: NSCLC model PDX-NSX-15137; assay: PDX tumor growth versus standard of care; type: in vivo, mouse; settings: 22.5 mg/kg
Procedure: as §1, §2, §3

[3] = test system: H1299 cells; assay: In vitro cytotoxicity (ATPlite viability, four days); type: cell-based; settings: Homo sapiens, NCI-H1299; H1299, NSCLC
Procedure: (§4) Cells were incubated in a 6-fold 9-point dilution series of respective ADCs ranging in concentration from 600 nM to 0.357225 pM. […] The mean of luminescence counts of triplicate samples were normalized to a medium only control (growth medium no ADC) to calculate percent viability.

[4] = test system: H2009 cells; assay: as above; type: cell-based; settings: Homo sapiens, NCI-H2009; H2009, lung adenocarcinoma
Procedure: as §4

[5] = test system: PC3 cells; assay: as above; type: cell-based; settings: Homo sapiens, PC-3; PC3, prostate cancer
Procedure: as §4

[6] = test system: PE/CA-PJ-49 cells; assay: as above; type: cell-based; settings: Homo sapiens; PE/CA-PJ-49, oral squamous cell carcinoma
Procedure: as §4

[7] = test system: SCC-25 cells; assay: as above; type: cell-based; settings: Homo sapiens; SCC-25, head and neck cancer
Procedure: as §4

[8] = test system: primary human aortic smooth muscle cells (HuAoSMC); assay: as above; type: cell-based
Procedure: as §4

Question: Which “tumor size at day 25” value [1] does the source give for `N.N.[Cl][Pt][Cl]` [cisplatin, reference compound] here?
Answer: more than doubled in size

Question: Which results are given for `CC(=O)O[C@H]1C(=O)[C@@]2(C)[C@H]([C@H](OC(=O)c3ccccc3)[C@]3(O)C[C@H](OC(=O)[C@H](O)[C@@H](NC(=O)c4ccccc4)c4ccccc4)C(C)=C1C3(C)C)[C@]1(OC(C)=O)CO[C@@H]1C[C@@H]2O` [Paclitaxel, reference compound]?
Answer: average tumor size at day 35 [2]: doubled; day by which all mice had been sacrificed due to excessive tumor growth [2]: ≤ 42 days

Question: Which results are given for `CC[C@H](C)[C@@H]([C@@H](CC(=O)N1CCC[C@H]1[C@H](OC)[C@@H](C)C(=O)N[C@@H](Cc1ccccc1)c1nccs1)OC)N(C)C(=O)[C@@H](NC(=O)C(C)(C)N)C(C)C` [Aur0101, 2-methylalanyl-N-[(3R,4S,5S)-3-methoxy-1-{(2S)-2-[(1R,2R)-1-methoxy-2-methyl-3-oxo-3-{[(1S)-2-phenyl-1-(1,3-thiazol-2-yl)ethyl]amino}propyl]pyrrolidin-1-yl}-5-methyl-1-oxoheptan-4-yl]-N-methyl-L-valinamide] (H-[Aib]V[Dil][Dolaproine]-Doe)?
Answer: IC50 [3]: 202 pM; IC50 [4]: 116 pM; IC50 [5]: 63.6 pM; IC50 [6]: 37.3 pM; IC50 [7]: 47 pM; IC50 [8]: 176 pM
